Data on one molecule can be found in article PMC6410202, “Dual Action of the PN159/KLAL/MAP Peptide: Increase of Drug Penetration across Caco-2 Intestinal Barrier Model by Modulation of Tight Junctions and Plasma Membrane Permeability” (Pharmaceutics, 2019).

The test system of one data set is claudin-5. On the set-up: method as in PMID 26869428. As to conditions: affinity measurements; cited from earlier work.
Data set [1] deals with Caco-2 epithelial cells. Nature of the data set: Ethidium homodimer-1 staining, cell membrane integrity. The following applies: PN159 1 to 10 μM, 24-h treatments. The class given is cell-based, human. How it is done: Besides the junctional effects, changes in the cell membrane integrity were also examined by ethidium homodimer-1 (856.77 Da) staining of Caco-2 epithelial cells after 24-h treatments in the concentration range of 1 to 10 μM.
Figure 7 (A) Fluorescent staining of juntional protein zonula occludens-1 and double staining of cell nuclei in Caco-2 cells after 1-h treatment with PN159 peptide. Green color: immunostaining for ZO-1. Red color: staining by ethidium homodimer-1 (EH-1), indicating increased membrane permeability.Blue color: staining of all cell nuclei by H33342. Bar = 10 µm. (B) Confocal microscopy images of living Caco-2 epithelial cells incubated with Bodipy FL labeled PN159 peptide in different concentrations for 5 min at 37°C. Green color: BodipyFL-PN159 peptide. Blue color: staining of cell nuclei. Bar = 10 µm.

The test system of data set [2] is Caco-2 epithelial cells. Nature of the data set: MTT assay, Caco-2 cell viability. The class given is cell-based, human. The following applies: 1-h treatment. As for the experimental part: The human Caco-2 intestinal epithelial cell line was purchased from ATCC (cat.no. HTB-37). Caco-2 cells were grown in DMEM/HAM’s F-12 culture medium with stable glutamine (Life Technologies, Gibco, Carlsbad, CA, USA) supplemented with 10% fetal bovine serum (Life Technologies, Gibco, Carlsbad, CA, USA and 50 μg/mL gentamycin in a humidified incubator with 5% CO2 at 37 °C. All plastic surfaces were coated with 0.05% rat tail collagen in sterile distilled water before cell seeding.
The PN159 peptide stock solution (5 mM) was prepared freshly in sterile DMSO. Treatment solutions were further diluted in Ringer-Hepes (150 mM NaCl, 6 mM NaHCO3, 5.2 mM KCl, 2.2 mM CaCl2, 0.2 mM MgCl2, 2.8 mM D-glucose, 5 mM Hepes; pH 7.4) or cell culture medium. Final concentrations of the peptide in treatment solutions were as follows: 1, 3, 10, 30 and 100 µM for cell viability assays; 1, 3, 10 and 30 µM for the barrier integrity assays and 10 µM for the recovery measurements.
For the cell viability assays Caco-2 epithelial cells were seeded to 96-well plates at the density of 6 × 10^3 cells/well (Orange Scientific) and cultured for 3-5 days. Confluent cultures were treated with PN159 peptide (1, 3, 10, 30 and 100 μM) in phenol red free DMEM (Life Technologies, Gibco, Carlsbad, CA, USA) for 1-h. This viability assay was performed at three different time points: (i) immediately after the 1-h treatment, (ii) at one-day recovery, (iii) at one-week recovery. To determine 100% toxicity, cells were incubated with 1 mg/mL Triton X-100 detergent. After treatment the medium was changed and 0.5 mg/mL MTT (3-(4,5-dimethyltiazol-2-yl)-2,5-diphenyltetrazolium bromide) solution was added to the cells for 3 h. During the incubation cells were kept in a CO2 incubator. The metabolic activity of cells is reflected by the conversion of the yellow MTT dye to purple formazan. Formazan crystals were dissolved in DMSO and the amount of converted dye was determined by measuring absorbance at 595 nm wavelength with a microplate reader (Fluostar Optima, BMG Labtechnologies, Ortenberg, Germany). Cell viability and/or metabolic activity was calculated as percentage of dye conversion by non-treated cells.
A general note: Tetrazolium assays rely on reduction of a dye to a coloured formazan, in cell work by metabolically active cells.

In the next data set the test system is claudin-1. On the set-up: method as in PMID 26869428. As to conditions: affinity measurements; cited from earlier work.
The next data set concerns Caco-2 cells. Nature of the data set: Transmission electron microscopy of tight junctions. The following applies: 30 min. It counts as cell-based, human. As for the experimental part: Cells grown on culture inserts were treated with 10 μM PN159 peptide for 30 min and fixed immediately after treatment or after a 1-day recovery. Cells were briefly washed with phosphate-buffered saline (PBS) and fixed with 3% paraformaldehyde containing 0.5% glutaraldehyde in cacodylate buffer (pH 7.4) for 30 min at 4 °C. After washing with the buffer several times, cells were postfixed in 1% OsO4 for 20 min. Following a rinse with distilled water, the cells were block stained with 1% uranyl acetate in 50% ethanol for 20 min, dehydrated in graded ethanol and after the last step of dehydration inserts were placed in the 1:1 mixture of ethanol and Taab 812 (Taab; Aldermaston, Berks, UK) for 10 min at 30°C. Finally, the membranes of the culture inserts with the cells were removed from their support and embedded in Taab 812. Polymerization was performed overnight at 60°C. Ultrathin sections were cut perpendicularly for the membrane using a Leica EM UC6 ultramicrotome (Nussloch, Germany) and picked up on formvar-coated single-slot copper grids. […] Altogether, 105 non-overlapping images from the 3 groups at the same magnification were analyzed for the presence or absence of tight junctions (control group n = 28; PN159 group n = 42; recovery group n = 35).

The nature of data set [3]: Circular dichroism spectroscopy of the peptide. The class given is physicochemical. As to conditions: CD. As for the experimental part: Far-UV circular dichroism (CD) spectra of the peptides were recorded at 25°C temperature on a J-810 spectropolarimeter (JASCO International Co. Ltd., Tokyo, Japan). The CD spectra were measured between 260 nm and 185 nm with an optical pathlength of 1 mm, at a peptide concentration of 0.1 mg/mL in Milli-Q water diluted directly from powder. The bandwidth was 2 nm and data pitch 0.5 nm, the scan speed was set to 100 nm/min and the integration time was 1 sec. Ten spectra were accumulated and plotted. The data were analyzed by CDSSTR method. To test the thermostability of the peptide structure the CD spectra were recorded between 25 °C and 55 °C temperature with a ramp rate of 5 °C/min on a JASCO J-810 spectropolarimeter by using a Peltier sample holder. The CD spectra were measured immediately between 260 and 185 nm with an optical pathlength of 1 mm, the peptide concentration was 0.1 mg/mL in Milli-Q water. The bandwidth was 2 nm and data pitch 1 nm, the scan speed was set to 100 nm/min, and the integration time was 1 sec. Five spectra were accumulated and plotted.
A general note: Circular dichroism is widely used to follow secondary structure.

For the molecule `CC(C)C[C@H](NC(=O)[C@H](C)NC(=O)[C@H](CCCCN)NC(=O)[C@H](CC(C)C)NC(=O)[C@H](C)NC(=O)[C@H](CC(C)C)NC(=O)[C@H](CCCCN)NC(=O)[C@H](CC(C)C)NC(=O)[C@H](C)NC(=O)[C@H](CC(C)C)NC(=O)[C@@H](N)CCCCN)C(=O)N[C@@H](CCCCN)C(=O)N[C@@H](C)C(=O)N[C@@H](C)C(=O)N[C@@H](CC(C)C)C(=O)N[C@@H](CCCCN)C(=O)N[C@@H](CC(C)C)C(=O)N[C@@H](C)C(N)=O` [PN159], the Binding entry in the data set on claudin-5 and in the data set on claudin-1 was “in the micromolar range” each time. The “Plasma membrane entry of ethidium homodimer-1” value with Caco-2 epithelial cells [1] is listed as “Only the highest PN159 concentration caused plasma membrane entry of the red fluorescent dye”. Further, the “Non-toxic concentration (MTT and impedance)” value in the data set with Caco-2 epithelial cells [2] (Caco-2) was at most 10 µM. In addition, the results for the “Toxicity (MTT and impedance)” value in the data set on Caco-2 epithelial cells [2] (PN159 30 μM) and in the data set with Caco-2 epithelial cells [2] (PN159 100 μM) were “reversible” and “toxic”, respectively. Moreover, the “Reversibility of cytotoxic effect (MTT)” value with Caco-2 epithelial cells [2] (PN159 100 μM, 1-day or 1-week recovery) is “not reversible after one day or even one week”. In addition, the “Cell viability (MTT)” value in the data set with Caco-2 epithelial cells [2] (PN159 1–10 μM, Caco-2) is “did not decrease cell viability”; in the data set on Caco-2 epithelial cells [2] (PN159 30 and 100 μM, Caco-2), “cell damage”. Also, the “Ultrastructure of epithelial junctions” value in the data set with Caco-2 cells (1-day recovery after PN159 10 μM) was “became similar to control cells”. For the same molecule, in the data set on Caco-2 cells (PN159 10 μM), the “Tight junctions by electron microscopy” value is “no junctions were observed”. In data set [3] (25 °C, 0.1 mg/mL in water), the “Secondary structure, turns” value was found to be 24%. Also, the “Secondary structure, unordered structure” value in data set [3] (25 °C, 0.1 mg/mL in water) came to 34%. In data set [3] (25 °C, 0.1 mg/mL in water), the “Secondary structure, α-helix” value was 11%. Moreover, the “Secondary structure, β-sheet” value in data set [3] (25 °C, 0.1 mg/mL in water) worked out at 31%. Also, in data set [3] (between 25 and 55 °C), the “Thermostability of secondary structure” value is reported as “stable”.
